Laboratory results published in patent US11530229B2, “Cyano cyclobutyl compounds for CBL-B inhibition and uses thereof” (Nurix Therapeutics, Inc., priority 2019, dated 2022).
Where two headings read alike, the source gives them in different places.

How the values were obtained:
[1] = test system: primary human total T-cells; experiment: T-cell activation, CD25 surface staining, Biological Example 2; assay type: cell-based; conditions: 48 hours, fold change over baseline; for fold induction at 0.3 µM: 0.3 μM inhibitor; for fold induction at 1 µM: 1 μM inhibitor; for fold induction at 3 µM: 3 μM inhibitor
Cbl-b = Cbl-b (Homo sapiens (Human), UniProt Q13191); experiment: Cbl-b displacement assay (Cbl-b inhibition assay), Biological Example 1; assay type: binding
Sequence of Cbl-b (Q13191 36-427): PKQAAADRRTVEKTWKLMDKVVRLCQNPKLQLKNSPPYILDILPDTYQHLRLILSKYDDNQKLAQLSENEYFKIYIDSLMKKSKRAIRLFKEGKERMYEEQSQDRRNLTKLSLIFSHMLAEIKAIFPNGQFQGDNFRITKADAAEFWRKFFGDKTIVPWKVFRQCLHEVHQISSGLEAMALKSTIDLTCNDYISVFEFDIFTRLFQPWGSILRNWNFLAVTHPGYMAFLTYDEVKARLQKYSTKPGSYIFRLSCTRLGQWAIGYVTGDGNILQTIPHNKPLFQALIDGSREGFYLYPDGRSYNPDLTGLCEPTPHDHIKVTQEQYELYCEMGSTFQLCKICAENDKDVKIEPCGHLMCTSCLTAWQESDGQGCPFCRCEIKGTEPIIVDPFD
In short: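 Avitag-biotinylated human Cbl-b (residues 36–427) at 0.5 nM ("High") or 0.125 nM ("Low") pre-incubated 1 h with compound (1% DMSO) in HEPES pH 7.5/NaCl/Triton/BSA/TCEP, RT. Then 1 h with 150 nM BODIPY FL inhibitor probe (~EC40) plus 2 nM streptavidin-Tb. TR-FRET read at 520/620 nm for probe displacement.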

[2] = test system: primary human total T-cells; experiment: T-cell activation, IL-2 secretion, Biological Example 2; assay type: cell-based; conditions: 48 hours, fold change over baseline; for fold induction at 0.3 µM: 0.3 μM inhibitor; for fold induction at 1 µM: 1 μM inhibitor; for fold induction at 3 µM: 3 μM inhibitor
[3] = anti-CD3 and anti-CD28 co-stimulation
[4] = anti-CD3 and anti-CD28 co-stimulation, read-out: CD25 staining CD3/CD28 1 μM
[5] = anti-CD3 stimulation alone, read-out: CD25 staining CD3 1 μM
[6] = 0.125 nM Cbl-b final concentration (Low), read-out: Cbl-b activity IC50 (Low)
[7] = read-out: IC50 values in the Cbl-b inhibition assay of Biological Example 1
[8] = anti-CD3 and anti-CD28 co-stimulation, read-out: IL-2 secretion CD3/CD28 1 μM
[9] = anti-CD3 stimulation alone, read-out: IL-2 secretion CD3 1 μM

Compound | fold induction at 0.3 µM [1, 3] | fold induction at 1 µM [1, 4] | fold induction at 1 µM [1, 5] | fold induction at 3 µM ([1]; anti-CD3 stimulation alone) | IC50 (Cbl-b; [6]) [nM] | IC50 (Cbl-b; [7]) [nM] | fold induction at 0.3 µM [2, 3] | fold induction at 1 µM [2, 8] | fold induction at 1 µM [2, 9] | fold induction at 3 µM ([2]; anti-CD3 stimulation alone)
Cc1cc(C(=O)Nc2cccc([C@]3(Cc4nncn4C)C[C@](C)(C#N)C3)c2)nc(C2CC2)n1 [Compound 9] | ≤ 1.24 | 1.24 to 1.39 | ≤ 1 | 1 to 1.15 | 5 to 20 | 5 to 20 | ≤ 15 | ≤ 15 | < 0.4 | < 0.4
Cn1cnnc1C[C@]1(c2cccc(N3Cc4c(cc(CN5CCCCC(CO)C5)cc4C(F)(F)F)C3=O)c2)C[C@H](C#N)C1 (some centres unmarked) [Compound 48, (1r,3r)-3-(3-(6-((3-(hydroxymethyl)azepan-1-yl)methyl)-1-oxo-4-(trifluoromethyl)isoindolin-2-yl)phenyl)-3-((4-methyl-4H-1,2,4-triazol-3-yl)methyl)cyclobutane-1-carbonitrile] | > 1.39 | > 1.39 | > 1.15 | > 1.15 | 1 to 2 | 1 to 2 | ≤ 15 | > 20 | 0.4 to 0.85 | 0.4 to 0.85
C[C@@H]1CN(Cc2cc3c(c(C(F)(F)F)c2)CN(c2cccc([C@]4(Cc5nncn5C)C[C@@](C)(C#N)C4)c2)C3=O)CCO1 [Compound 7, (1r,3r)-1-methyl-3-((4-methyl-4H-1,2,4-triazol-3-yl)methyl)-3-(3-(6-(((R)-2-methylmorpholino)methyl)-1-oxo-4-(trifluoromethyl)isoindolin-2-yl)phenyl)cyclobutane-1-carbonitrile] | ≤ 1.24 | 1.24 to 1.39 | ≤ 1 | ≤ 1 | 5 to 20 | 5 to 20 | ≤ 15 | ≤ 15 | < 0.4 | < 0.4
Cn1cnnc1C[C@]1(c2cccc(N3Cc4c(cc(CN5CCCCC(C)(F)C5)cc4C(F)(F)F)C3=O)c2)C[C@H](C#N)C1 (some centres unmarked) [Compound 26, (1r,3r)-3-(3-(6-((3-fluoro-3-methylazepan-1-yl)methyl)-1-oxo-4-(trifluoromethyl)isoindolin-2-yl)phenyl)-3-((4-methyl-4H-1,2,4-triazol-3-yl)methyl)cyclobutane-1-carbonitrile] | ≤ 1.24 | ≤ 1.24 | ≤ 1 | ≤ 1 | 2 to 5 | – | ≤ 15 | ≤ 15 | < 0.4 | < 0.4
CN(Cc1cc2c(c(C(F)(F)F)c1)CN(c1cccc([C@]3(Cc4nncn4C)C[C@@H](C#N)C3)c1)C2=O)C1CC(F)(F)C1 [Compound 22, (1r,3r)-3-(3-(6-(((3,3-difluorocyclobutyl)(methyl)amino)methyl)-1-oxo-4-(trifluoromethyl)isoindolin-2-yl)phenyl)-3-((4-methyl-4H-1,2,4-triazol-3-yl)methyl)cyclobutane-1-carbonitrile] | > 1.39 | > 1.39 | 1 to 1.15 | 1 to 1.15 | 2 to 5 | 2 to 5 | ≤ 15 | ≤ 15 | 0.4 to 0.85 | 0.4 to 0.85
C[C@@H]1CN(Cc2cc3c(c(C(F)(F)F)c2)CN(c2cccc([C@]4(Cc5nncn5C)C[C@@H](C#N)C4)c2)C3=O)CCO1 [Compound 6, (1r,3r)-3-((4-methyl-4H-1,2,4-triazol-3-yl)methyl)-3-(3-(6-(((R)-2-methylmorpholino)methyl)-1-oxo-4-(trifluoromethyl)isoindolin-2-yl)phenyl)cyclobutane-1-carbonitrile] | ≤ 1.24 | ≤ 1.24 | 1 to 1.15 | ≤ 1 | 2 to 5 | 2 to 5 | ≤ 15 | ≤ 15 | 0.4 to 0.85 | 0.4 to 0.85
CC1CCN(Cc2cc3c(c(C(F)(F)F)c2)CN(c2cccc([C@]4(Cc5nncn5C)C[C@@H](C#N)C4)c2)C3=O)CCO1 (some centres unmarked) [Compound 36, (1r,3r)-3-(3-(6-((7-methyl-1,4-oxazepan-4-yl)methyl)-1-oxo-4-(trifluoromethyl)isoindolin-2-yl)phenyl)-3-((4-methyl-4H-1,2,4-triazol-3-yl)methyl)cyclobutane-1-carbonitrile] | 1.24 to 1.39 | > 1.39 | 1 to 1.15 | 1 to 1.15 | 2 to 5 | – | ≤ 15 | 15 to 20 | < 0.4 | 0.4 to 0.85
